Data from PubChem BioAssay AID330 (DTP/NCI, 2004).
Several values for one entry are separate records, joined by “and”; a condition that tells them apart may be missing. Equal values may be shown once. Inconclusive results and toxic doses are left out.

Tested on: P388 leukemia ip, CD2F1 mice, survival T/C
Assay: NCI In Vivo Anticancer Drug Screen. Data for tumor model P388 Leukemia (intraperitoneal) in CD2F1 (CDF1) mice
Details: endpoint: median survival time, higher = longer survival
Summary of the method: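 Mice carrying the transplanted tumor received test compound or vehicle. Survival was recorded in each group, and the value is the treated-group measurement divided by that of the vehicle-treated control group.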

[1] = dose: 50.0 mg/kg/injection, schedule: Q01DX005 (ip), vehicle: saline with Tween-80
[2] = dose: 100.0 mg/kg/injection, schedule: Q01DX001 (ip), vehicle: saline with Tween-80
[3] = dose: 100.0 mg/kg/injection, schedule: Q01DX005 (ip), vehicle: saline with Tween-80
[4] = dose: 200.0 mg/kg/injection, schedule: Q01DX001 (ip), vehicle: saline with Tween-80
[5] = dose: 60.0 mg/kg/injection, schedule: Q01DX005 (ip), vehicle: saline with Tween-80
[6] = dose: 120.0 mg/kg/injection, schedule: Q01DX005 (ip), vehicle: saline with Tween-80
[7] = dose: 240.0 mg/kg/injection, schedule: Q01DX005 (ip), vehicle: saline with Tween-80
[8] = dose: 50.0 mg/kg/injection, schedule: Q01DX009 (ip), vehicle: saline with Tween-80
[9] = dose: 100.0 mg/kg/injection, schedule: Q01DX009 (ip), vehicle: saline with Tween-80
[10] = dose: 200.0 mg/kg/injection, schedule: Q01DX009 (ip), vehicle: saline with Tween-80
[11] = dose: 6.25 mg/kg/injection, schedule: Q01DX009 (ip), vehicle: saline
[12] = dose: 12.5 mg/kg/injection, schedule: Q01DX009 (ip), vehicle: saline
[13] = dose: 50.0 mg/kg/injection, schedule: Q01DX005 (ip), vehicle: Klucel (hydroxypropylcellulose) (HPC)

## O=C(c1cccs1)C1Cc2ccccc2C1=O (stereo not given)
dose: 100.0 mg/kg/injection, schedule: Q04DX003 (ip), vehicle: saline with Tween-80
  T/C: 95 % of control
dose: 200.0 mg/kg/injection, schedule: Q04DX003 (ip), vehicle: saline with Tween-80
  T/C: 90 % of control
dose: 400.0 mg/kg/injection, schedule: Q04DX003 (ip), vehicle: saline with Tween-80
  T/C: 90 % of control

## COc1ccc(O)cc1
dose: 12.5 mg/kg/injection, schedule: Q01DX005 (ip), vehicle: saline with Tween-80
  T/C: 104 % of control
dose: 25.0 mg/kg/injection, schedule: Q01DX005 (ip), vehicle: saline with Tween-80
  T/C: 99 % of control
[1]
  T/C: 99 % of control
[2]
  T/C: 101 % of control
[3]
  T/C: 99 % of control
[4]
  T/C: 102 % of control

## CC(=O)Oc1ccc2c(c1)C(=O)CCCCCCC(=O)O2
dose: 100.0 mg/kg/injection, schedule: Q01DX001 (ip), vehicle: saline
  T/C: 101 % of control
dose: 200.0 mg/kg/injection, schedule: Q01DX001 (ip), vehicle: saline
  T/C: 95 % of control
dose: 400.0 mg/kg/injection, schedule: Q01DX001 (ip), vehicle: saline
  T/C: 105 % of control

## OCCN1CCN(Cc2cc(Cl)cc(CN3CCN(CCO)CC3)c2O)CC1
[5]
  T/C: 100 % of control
[6]
  T/C: 97 % of control
[7]
  T/C: 100 % of control

## CC(Br)C(=O)Nc1ncc([N+](=O)[O-])s1 (stereo not given)
dose: 100.0 mg/kg/injection, schedule: Q01DX009 (ip), vehicle: saline
  T/C: 95 % of control
dose: 200.0 mg/kg/injection, schedule: Q01DX009 (ip), vehicle: saline
  T/C: 100 % of control

## COc1ccccc1CN1CC(C)N(N=Cc2c3c(O)c4c(O)c(C)c5c(c4c2O)C(=O)C(C)(O/C=C/C(OC)C(C)C(OC(C)=O)C(C)C(O)C(C)C(O)C(C)/C=C/C=C(\C)C(=O)N3)O5)C(C)C1 (stereo not given)
[8]
  T/C: 102 % of control
[9]
  T/C: 107 % of control
[10]
  T/C: 117 % of control

## CO[C@@]12[C@H](COC(N)=O)C3=C(C(=O)C(C)=C(N)C3=O)N1C[C@H]1[C@@H]2N1C(=O)[C@@H]1N2C(=O)[C@@H](NC(=O)Cc3ccccc3)[C@H]2SC1(C)C
[11]
  T/C: 116 % of control
[12]
  T/C: 155 % of control
dose: 25.0 mg/kg/injection, schedule: Q01DX009 (ip), vehicle: saline
  T/C: 155 % of control
dose: 50.0 mg/kg/injection, schedule: Q01DX009 (ip), vehicle: saline
  T/C: 165 % of control

## Nc1nc(-c2ccccc2)c(CC(=O)O)c(-c2nc(N)nc(-c3ccccc3)c2CC(=O)O)n1
[5]
  T/C: 100 % of control
[6]
  T/C: 100 % of control
[7]
  T/C: 86 % of control

## S=C1NCN(CC2CC2)CN1
[5]
  T/C: 97 % of control
[6]
  T/C: 96 % of control
[7]
  T/C: 94 % of control

## Cn1cc(CCC(=O)C2C=CC=CC2=NC(=O)CCCl)c2ccccc21 (stereo not given)
[5]
  T/C: 107 % of control
[6]
  T/C: 101 % of control
[7]
  T/C: 94 % of control

## Nc1ccncc1C(=O)O
[8]
  T/C: 99 % of control
[9]
  T/C: 99 % of control
[10]
  T/C: 96 % of control

## CN(C)CCC(=O)Nc1nc(-c2ccc(Cl)cc2)cs1
[1]
  T/C: 102 % of control
[3]
  T/C: 92 % of control
dose: 200.0 mg/kg/injection, schedule: Q01DX005 (ip), vehicle: saline with Tween-80
  T/C: 96 % of control

## O=[N+]([O-])c1ccc(/C=C\S(=O)(=O)OCCCl)cc1
[13]
  T/C: 100 % of control

## CCCCCNc1ncnc2c1ncn2C1OC(CO)C(O)C1O (stereo not given)
dose: 12.5 mg/kg/injection, schedule: Q04DX003 (ip), vehicle: saline
  T/C: 97 % of control
dose: 25.0 mg/kg/injection, schedule: Q04DX003 (ip), vehicle: saline
  T/C: 108 % of control
dose: 50.0 mg/kg/injection, schedule: Q04DX003 (ip), vehicle: saline
  T/C: 102 % of control
dose: 100.0 mg/kg/injection, schedule: Q04DX003 (ip), vehicle: saline
  T/C: 104 % of control

## O=S(=O)([O][Hg][CH2]C1Cc2ccccc2O1)[O][Hg][CH2]C1Cc2ccccc2O1 (stereo not given)
dose: 11.0 mg/kg/injection, schedule: Q01DX009 (ip), vehicle: saline with Tween-80
  T/C: 118 % of control

## COc1cc(C=Nc2cccc3c2NCCC3)cc(OC)c1OC
[2]
  T/C: 105 % of control
[4]
  T/C: 98 % of control
dose: 400.0 mg/kg/injection, schedule: Q01DX001 (ip), vehicle: saline with Tween-80
  T/C: 98 % of control

## CCCCCCCC[N+](C)(C)CCSCC[N+](C)(C)CCCCCCCC
dose: 3.13 mg/kg/injection, schedule: Q01DX009 (ip), vehicle: saline with Tween-80
  T/C: 99 % of control
dose: 6.25 mg/kg/injection, schedule: Q01DX009 (ip), vehicle: saline with Tween-80
  T/C: 96 % of control
dose: 12.5 mg/kg/injection, schedule: Q01DX009 (ip), vehicle: saline with Tween-80
  T/C: 114 % of control

## COc1ccc2nccc(C(C)=O)c2c1
[13]
  T/C: 100 % of control
dose: 100.0 mg/kg/injection, schedule: Q01DX005 (ip), vehicle: Klucel (hydroxypropylcellulose) (HPC)
  T/C: 98 % of control
dose: 200.0 mg/kg/injection, schedule: Q01DX005 (ip), vehicle: Klucel (hydroxypropylcellulose) (HPC)
  T/C: 106 % of control

## C=C1[C@@H](NC)CC[C@]23C[C@]24CC[C@]2(C)[C@@H]([C@H](C)NC)[C@H](O)C[C@@]2(C)[C@@H]4CC[C@@H]13
dose: 25.0 mg/kg/injection, schedule: Q01DX001 (ip), vehicle: saline with Tween-80
  T/C: 104 % of control
dose: 50.0 mg/kg/injection, schedule: Q01DX001 (ip), vehicle: saline with Tween-80
  T/C: 99 % of control
[2]
  T/C: 104 % of control

## c1ccc(C2=C([P+](c3ccccc3)(c3ccccc3)c3ccccc3)CCO2)cc1
dose: 1.56 mg/kg/injection, schedule: Q01DX009 (ip), vehicle: saline
  T/C: 110 % of control and 117 % of control
dose: 2.6 mg/kg/injection, schedule: Q01DX009 (ip), vehicle: saline
  T/C: 114 % of control
dose: 3.13 mg/kg/injection, schedule: Q01DX009 (ip), vehicle: saline
  T/C: 119 % of control and 120 % of control
dose: 4.0 mg/kg/injection, schedule: Q01DX009 (ip), vehicle: saline
  T/C: 114 % of control
dose: 6.0 mg/kg/injection, schedule: Q01DX009 (ip), vehicle: saline
  T/C: 117 % of control
[11]
  T/C: 124 % of control
dose: 9.0 mg/kg/injection, schedule: Q01DX009 (ip), vehicle: saline
  T/C: 118 % of control
[12]
  T/C: 100 % of control and 109 % of control

## CN(C(=S)SSC(=S)N(C)c1ccccc1)c1ccccc1
dose: 25.0 mg/kg/injection, schedule: Q01DX009 (ip), vehicle: Klucel (hydroxypropylcellulose) (HPC)
  T/C: 91 % of control
dose: 50.0 mg/kg/injection, schedule: Q01DX009 (ip), vehicle: Klucel (hydroxypropylcellulose) (HPC)
  T/C: 93 % of control
dose: 100.0 mg/kg/injection, schedule: Q01DX009 (ip), vehicle: Klucel (hydroxypropylcellulose) (HPC)
  T/C: 97 % of control
dose: 200.0 mg/kg/injection, schedule: Q01DX009 (ip), vehicle: Klucel (hydroxypropylcellulose) (HPC)
  T/C: 101 % of control

## COC(=O)C1CC(C(=O)OC)C2C(C(=O)OC)CC(C(=O)OC)C12 (stereo not given)
[5]
  T/C: 99 % of control
[6]
  T/C: 96 % of control
[7]
  T/C: 99 % of control

## CCC[CH2][Sn]1([CH2]CCC)[O]C2C(CO)OC(n3ccc(N)nc3=O)C2[O]1 (stereo not given)
dose: 0.3 mg/kg/injection, schedule: Q03HX015 (ip), vehicle: Klucel (hydroxypropylcellulose) (HPC)
  T/C: 106 % of control
dose: 0.44 mg/kg/injection, schedule: Q03HX015 (ip), vehicle: Klucel (hydroxypropylcellulose) (HPC)
  T/C: 117 % of control
dose: 0.67 mg/kg/injection, schedule: Q03HX015 (ip), vehicle: Klucel (hydroxypropylcellulose) (HPC)
  T/C: 119 % of control and 121 % of control
dose: 0.9 mg/kg/injection, schedule: Q01DX005 (ip), vehicle: Klucel (hydroxypropylcellulose) (HPC)
  T/C: 109 % of control
dose: 1.0 mg/kg/injection, schedule: Q03HX015 (ip), vehicle: Klucel (hydroxypropylcellulose) (HPC)
  T/C: 123 % of control
dose: 1.5 mg/kg/injection, schedule: Q03HX015 (ip), vehicle: Klucel (hydroxypropylcellulose) (HPC)
  T/C: 120 % of control and 124 % of control
dose: 1.56 mg/kg/injection, schedule: Q01DX009 (ip), vehicle: other
  T/C: 102 % of control and 86 % of control
dose: 2.0 mg/kg/injection, schedule: Q01DX005 (ip), vehicle: Klucel (hydroxypropylcellulose) (HPC)
  T/C: 121 % of control
dose: 3.0 mg/kg/injection, schedule: Q01DX005 (ip), vehicle: Klucel (hydroxypropylcellulose) (HPC)
  T/C: 122 % of control
dose: 3.12 mg/kg/injection, schedule: Q01DX009 (ip), vehicle: other
  T/C: 97 % of control

## CCN(CCO)C(=O)Nc1ccc(Cl)cc1
dose: 60.0 mg/kg/injection, schedule: Q01DX005 (ip), vehicle: Klucel + Tween-80
  T/C: 99 % of control
dose: 120.0 mg/kg/injection, schedule: Q01DX005 (ip), vehicle: Klucel + Tween-80
  T/C: 101 % of control
dose: 240.0 mg/kg/injection, schedule: Q01DX005 (ip), vehicle: Klucel + Tween-80
  T/C: 100 % of control
